Assay results published in a melting point compilation (Tetko et al.; mined from patent text by program, amines drawn as free bases though some values may be those of a salt).

melting point [°C]	Structure (SMILES)
77 to 79	CC1CC=NN1C(=O)c1cnccn1 (centres undefined)
222 to 225	CC1(C)OCC(Cn2c(=O)sc3c(=O)[nH]c(N)nc32)O1 (centres undefined)
96 to 98	O=C(CNC(=O)OCc1ccccc1)Nn1cccc1C(=O)c1ccccc1
202 to 205	CN1C(=O)N(C)C(Cc2c[nH]c3ccccc23)C1CCc1cc(C(F)(F)F)cc(C(F)(F)F)c1 (centres undefined)
157	CCOC1CC(n2cc(CC)c(=O)[nH]c2=O)OC1CO (centres undefined)
131 to 133	Cc1nc(-c2ccc(C(F)(F)F)cc2)oc1CSc1ccc(OCC(=O)O)cc1
117 to 120	COC(=O)C1=Cc2cc(-c3ccc(OC)cc3)ccc2SCC1
193 to 195	O=C(O)CCCCCCCCCCSc1nc(-c2ccccc2)c(-c2ccccc2)[nH]1
59 to 61	COc1cc(C(F)(F)F)ccc1C#N
123 to 124	Cc1cnn(CC(=O)O)c1OCCCc1cn(-c2ccc(C(F)(F)F)cn2)nc1C(C)C
75 to 77	COc1c(C)c(C)c(O)c(C)c1CN(C)CCOc1cc(C)ccc1C(C)C
245 to 246	CCCc1c(OCc2cc(C=CC(=O)O)ccc2OC)ccc(C(C)=O)c1O
94 to 105	CC(=O)N[C@@H](CC(C)C)C(=O)N[C@@H](C(C)C)[C@@H](O)c1c(-c2ccccc2)c1=O
107 to 110	CC(=NO)C(=O)C(C)(C)C
112 to 118	CC1(C)OC2OC(CN3C(=O)C4(COc5cc6c(cc54)OCCO6)c4ccccc43)C3OC(C)(C)OC3C2O1 (centres undefined)
74 to 75	O=[N+]([O-])c1cc(Cl)cc(CO)c1
134 to 135	N#Cc1cc(C(=O)NNC(=O)c2occc2-c2ccccc2Oc2ccccc2)ccc1O
240	O=C(O)c1ccc2cc(OCCOc3ccc4c(CCO)c(C(=O)O)c(CCO)cc4c3)ccc2c1

melting point [°C]	Structure (SMILES)
60	COc1ccc(OC[C@@H](O)CNCCc2ccc(NC3SC(=O)NC3=O)cc2)cc1 (some centres undefined)
95.5 to 97.5	CCC(C)N1CC(=O)N(C(C)CC)CC1=O (centres undefined)
348 to 350	N#Cc1cccc(-c2ccc(O)c(-c3nc4cc(C#N)ccc4[nH]3)c2)c1
52 to 58	CC1(C)[C@@H](CNc2ccc(C(F)(F)F)cn2)CC[C@@]1(C)NCC(=O)N1C[C@@H](F)C[C@H]1C#N
202 to 204	Oc1ncc(-c2ccccc2)s1
165 to 167	N#Cc1ccc(OCCCCCOc2ccc(-c3cc4ccc(C#N)cc4o3)cc2)cc1
81.1 to 83.9	Nc1nc2ccccc2c2c1nc(-c1ccccc1)n2CCCCNC(=O)c1ccc2ccccc2n1
210 to 212	NC(=O)Nc1nc2n(n1)CCc1ccccc1-2
138 to 140	Cc1cc(NS(C)(=O)=O)cc(C)c1S(=O)(=O)C[N+](=O)[O-]
217 to 218	Cc1ccc(-c2nc(C#N)cc3c4cccc5c4n(c23)CCC5)cc1
214 to 216	CC1(C)C(N)CN1c1c(F)cc2c(=O)c(C(=O)O)cn(C3CC3)c2c1F (centres undefined)
139 to 142	CN(CCOc1ccc(CC2SC(=O)NC2=O)cc1)C(=O)c1ccccc1 (centres undefined)
177 to 179	CC(=O)Nc1c(C(=O)c2ccccc2)[nH]c2cc(C(F)(F)F)ccc12
164	Nc1cc([N+](=O)[O-])c(N)cc1SCC(O)CO (centres undefined)
57 to 58	CCC(=O)[C@@H](NC(=O)OCc1ccccc1)[C@@H](C)CC
225 to 227	CCOC(=O)c1nc(NC)sc1-c1nc2ccc(C)cn2c1C
195 to 196	CCOC(=O)c1cc2cc(NS(=O)(=O)CCCCl)ccc2[nH]1
126	O=C1NC(=O)C2(c3cc(Oc4ccc([N+](=O)[O-])cc4)c(Cl)cc3F)CCCCC12 (centres undefined)

More lines, now with the values behind:

Structure (SMILES)	melting point [°C]
CCCCCCCCCCCCCCCCCCOc1cc(C(N)=O)cc([N+](=O)[O-])c1	117 to 120
CCOC(=O)c1cc2c(F)c(Cl)ccc2[nH]1	143 to 145
O=C(O)CSc1ccc(/C=C/C(=O)NCc2cccnc2)cc1	160 to 161
CC(=O)OC1N=C(c2ccccc2Cl)c2nc(Cl)ccc2-n2c1n[nH]c2=O (centres undefined)	232 to 236
COc1cccc2c1C1=C(CC2)NC(=O)CC1	190
CC1=NC(C)(C)SC1=NOC(=O)N(C)C	92 to 95
ClCc1cn2c(n1)CN=C(c1ccccn1)c1cc(Cl)ccc1-2	161
C[C@H](O)C(=O)N[C@@H]1C(=O)Nc2c(F)cccc2O[C@@H]1C	221 to 225
COC(=O)C(c1ccccc1)N1CCN(c2ccc([N+](=O)[O-])cc2)CC1 (centres undefined)	92
Cc1cc(CCCCCOc2ccc(C3=NCCO3)cc2)no1	91 to 92
CCOC(=O)C1(C(=O)OCC)Cc2ccc(OC)c(Cl)c2O1	97 to 99
COc1ccc(-c2cncc(OC3SCC(O)C(O)C3O)c2)cc1F (centres undefined)	200
CC(C)Cn1cnc2c(N)nc3ccc(CCc4ccncc4)cc3c21	221 to 224
CC1(C)NC(=O)C2CN(CCCC(c3ccc(F)cc3)c3ccc(F)cc3)CCN21 (centres undefined)	148
CC(O)c1cccc(OCc2cccc(C(=O)O)c2)c1 (centres undefined)	115 to 117
COc1ccc2c(c1)C(=O)c1ccc(C3=NCCN3)cc1S2(=O)=O	220 to 224
CN(C(CCn1c(=O)cc(C(F)(F)F)[nH]c1=O)C(=O)NO)S(=O)(=O)c1ccc(Oc2cccc(Cl)c2)cc1 (centres undefined)	168 to 169

Structure (SMILES)	melting point [°C]
CC(C)(C)OC(=O)c1ncn2c1C1CCCN1C(=O)c1cnccc1-2 (centres undefined)	217 to 218
COc1ccc(CNc2nc(Cl)nc(Cl)c2C(=O)O)cc1Cl	150 to 151
CCCn1nc2c(N)nc3ncccc3c2c1CC(C)(C)C#N	249 to 252
CCCCCCCCCCCCSc1ccc2nn(-c3cc(C(C)(C)C)cc(C(C)(C)C)c3O)nc2c1	62 to 64
OC12CCCCOC1C(OCc1ccccc1)C(OCc1ccccc1)C(OCc1ccccc1)C2OCc1ccccc1 (centres undefined)	106
CC1(C)CC(=O)C2C(=NC3=C(C(=O)CC(C)(C)C3)C2c2ccc(C#N)c([N+](=O)[O-])c2)C1 (centres undefined)	274 to 275
C=C(C)c1cnn(-c2ccnc3cc(Cl)ccc23)c1	85.5 to 88
CC(=O)Nc1ccc(OC(F)(F)F)cc1Br	123
CC(C)Oc1nc(N)nc2c1ncn2C1CC(N=[N+]=[N-])C(CO)O1 (centres undefined)	195 to 197
Cn1c(OC2CCOC2)nn(C(=O)NS(=O)(=O)c2ccccc2OC(F)(F)F)c1=O (centres undefined)	184
CCc1ccc(-c2ccc(-c3ccc(CC)s3)c(F)c2)cc1	67
CC1(C)Oc2ccc(C#N)cc2C(CC(=O)N2CCCCC2)C1O (centres undefined)	160 to 161
COC(=O)c1cc(C(=O)N[C@@H](Cc2ccccc2)[C@H]2CN(C3(c4cccc(C(F)(F)F)c4)CC3)C(=O)O2)n2c1CN(S(C)(=O)=O)CC2	104
COc1ccc(-c2nc(CNC(=O)c3ccc4n3Cc3ccccc3N(C(=O)c3ccc(-c5ccccc5C)c(C)c3)C4)no2)cc1	133 to 135
CCOC(=O)c1cnn(-c2ccc(C(F)(F)F)cc2[N+](=O)[O-])c1N	118 to 121
CC(=O)Nc1ccc(OCC(=O)NC2CCN(Cc3ccc(Cl)c(Cl)c3)CC2)cc1	177 to 178
